How the values were obtained:
[1] = tested on: human auto-activating MMP-9; assay: In vitro cleavage of the biosensor in HEK293 lysate by auto-activating MMP-9, western blot; format: biochemical; settings: inhibitor 25 μM final concentration
[2] = tested on: HEK293 cell lysate; assay: Baseline cleavage of the biosensor in untreated HEK293 lysate, western blot; format: biochemical
Procedure: Two days post-transfection HEK293 cells were washed one with PBS, scraped from the plate and lysed for 1 h at 4° C. with the following buffer: 50 mM Tris-Cl pH 7.5, 1% Triton X-100, 10 mM CaCl2, 0.02% NaN3, 1 μM ZnCl2. The lysis was performed without protease inhibitors since it was feared that they might block the activity of our auto-activating MMP-9. The lysate was then centrifuged at 13400 rpm for 15′ at 4° C. to remove cell debris. Equal amount of the cleared lysate were used in the subsequent reactions. […] GM6001 inhibitor was used in 25 μM final concentration. Reactions were stopped at either 30′, 1 h, 4 h or after overnight incubation at 37° C. with the addition of SDS-PAGE Sample Buffer and heating to 100° C. for 10 minutes. Sensor was detected on Western Blot with the anti-GFP antibody.

Structure (SMILES): CNC(=O)[C@H](Cc1c[nH]c2ccccc12)NC(=O)[C@@H](CC(=O)NO)CC(C)C [GM6001]
- effect of inhibitor on biosensor cleavage by auto-activating MMP-9 [1]: blocked
- effect of inhibitor on baseline cleavage of the biosensor [2]: at least partially, blocked
